According to the supplement of paper PMC11451515:

Legend:
Experiment in all cases: AUC of viability dose-response curve (% viability x log10 dose units); higher = less sensitive
Conditions in all cases: 48 h
P12-Ichikawa = tested on: P12-Ichikawa
Procedure, shortened: (§1)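 Leukemia cells adapted to each medium were seeded in 1536-well plates (500 or 1000 cells/well) and given library compounds in DMSO for 48 h at 37°C. The 11 threefold doses spanned 47 μM to 0.79 nM, and CellTiter-Glo One luminescence was normalised per plate to DMSO and cell-free wells before four-parameter log-logistic fitting on log10 dose. Area under the curve was integrated with the trapezoidal rule, scaling curves above full viability and removing curves that failed quality control.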

NOMO1 = tested on: NOMO1
Procedure, shortened: as §1

SEM cells = tested on: SEM cells
Procedure, shortened: as §1

[1] = RPMI 5 mM glucose + 10% dialyzed FBS

SMILES	AUC of viability dose-response curve (P12-Ichikawa; HPLM + 10% dialyzed FBS)	AUC of viability dose-response curve (P12-Ichikawa; RPMI 5 mM glucose + 10% FBS)	AUC of viability dose-response curve (P12-Ichikawa; [1])	AUC of viability dose-response curve (NOMO1; HPLM + 10% dialyzed FBS)	AUC of viability dose-response curve (NOMO1; RPMI 5 mM glucose + 10% FBS)	AUC of viability dose-response curve (NOMO1; [1])	AUC of viability dose-response curve (SEM cells; HPLM + 10% dialyzed FBS)	AUC of viability dose-response curve (SEM cells; RPMI 5 mM glucose + 10% FBS)	AUC of viability dose-response curve (SEM cells; [1])
CC(C)c1ccc2c(c1)c(SC(C)(C)C)c(CC(C)(C)C(=O)[O-])n2Cc1ccc(Cl)cc1	457	445	423	452	436	403	473	456	455
CN[C@@H](C)[C@H]1[C@H](O)C[C@@]2(C)[C@@H]3CC[C@H]4C(C)(C)[C@@H](NC)CC[C@@]45C[C@@]35CC[C@]12C	464	450	425	445	454	445	376	392	399
Cc1c(C)n(Cc2ccc(-c3ccccc3C(=O)O)cc2)c2ccc(C(=O)N[C@@H](C)c3ccc([N+](=O)[O-])cc3)cc12	425	423	422	421	411	417	460	466	470
C[C@@H](Oc1cc(-c2cnn(C3CCNCC3)c2)cnc1N)c1c(Cl)ccc(F)c1Cl	419	415	400	391	429	424			
COc1cc(OC2CCN(C)CC2)ccc1Nc1ncc2c(n1)n(C1CCCC1)c(=O)n2C	408	380	363	427	373	393	326	346	324
Clc1ccc(-c2nc3sccn3c2/C=N/OCc2ccc(Cl)c(Cl)c2)cc1	448	463	454	445	451	461	453	430	455
O=C1c2ccccc2-[n+]2ccc3c([nH]c4ccccc43)c21	403	405	407	385	398	390	291	332	311
C[C@](Cc1c[nH]c2ccccc12)(NC(=O)OC1C2CC3CC(C2)CC1C3)C(=O)NC[C@H](NC(=O)CCC(=O)O)c1ccccc1 (stereo partly specified)	469	461	456	455	413	435	447	433	430
C[C@@]12C(=O)OC(=O)[C@@]1(C)C1CCC2O1	407	405	407	391	371	392	400	392	377
FC1=CC=C(C=C1)N2/C=C\C=C(C(=O)NC3=CC=C(OC4=C5C=C[NH]C5=NC=C4)C(=C3)F)/C2=O	465	459	466	445	456	459			
O=C1[C@H](Cc2ccc(O)cc2)N2C(=O)CCN(C(=O)NCc3ccccc3)[C@H]2CN1Cc1cccc2ccccc12	404	375	361				334	384	363
S=C(NCc1ccc2c(c1)OCO2)N1CCN(c2ncnc3c2oc2ccccc23)CC1	406	387	389	416	438	445			
CC(C)(C#N)c1cc(Cn2cncn2)cc(C(C)(C)C#N)c1	466	456	442						
COc1ccc(-c2ccc3ncc4c(c3c2)n(-c2ccc(N3CCNCC3)c(C(F)(F)F)c2)c(=O)n4C)cn1				209	255	218			
c1ccc(CCCN2CCN(CCOC(c3ccccc3)c3ccccc3)CC2)cc1	431	432	406	434	409	405			
Cn1cnc2c(F)c(Nc3ccc(Br)cc3F)c(C(=O)NOCCO)cc21							392	382	363
O=C(Nc1cccc(C(F)(F)F)c1)Nc1cc([S+](=O)([O-])NC2CC2)ccc1-c1ccsc1	466	465	460				466	399	454
COCC1(CO)C(=O)C2CCN1CC2 (stereo unspecified)	413	414	421	435	446	462			
COc1ccccc1OCC(O)COC(N)=O (stereo unspecified)	466	461	461				467	465	459
Cc1nc2cnc3ccc(C#Cc4cccnc4)cc3c2n1-c1ccc(C(C)(C)C#N)cc1	314	251	255	264	259	268			
CC(C)c1nc(CN(C)C(=O)N[C@H](C(=O)N[C@@H](Cc2ccccc2)C[C@H](O)[C@H](Cc2ccccc2)NC(=O)OCc2cncs2)C(C)C)cs1	425	411	396				410	429	427
